pIC50: −log10 of the molar value. Like-named read-outs stand apart in the source and are kept apart here.
Legend:
Test in all cases: cell-based
hNav1.7 = hNav1.7 (Homo sapiens, UniProt Q15858); type: cell-based; details: PatchXpress, read-out: PX hNav1.7 Tonic IC50
hNav1.4 = hNav1.4 (Homo sapiens, UniProt P35499); details: for pIC50: PatchXpress, read-out: PX hNav1.4 Tonic IC50
hNav1.5 = hNav1.5 (Homo sapiens, UniProt Q14524); details: PatchXpress, read-out: PX hNav1.5 Tonic IC50
[1] = * = at high concentrations compound would wash off slowly or not at all

Sequence of hNav1.5 (Q14524 whole entry): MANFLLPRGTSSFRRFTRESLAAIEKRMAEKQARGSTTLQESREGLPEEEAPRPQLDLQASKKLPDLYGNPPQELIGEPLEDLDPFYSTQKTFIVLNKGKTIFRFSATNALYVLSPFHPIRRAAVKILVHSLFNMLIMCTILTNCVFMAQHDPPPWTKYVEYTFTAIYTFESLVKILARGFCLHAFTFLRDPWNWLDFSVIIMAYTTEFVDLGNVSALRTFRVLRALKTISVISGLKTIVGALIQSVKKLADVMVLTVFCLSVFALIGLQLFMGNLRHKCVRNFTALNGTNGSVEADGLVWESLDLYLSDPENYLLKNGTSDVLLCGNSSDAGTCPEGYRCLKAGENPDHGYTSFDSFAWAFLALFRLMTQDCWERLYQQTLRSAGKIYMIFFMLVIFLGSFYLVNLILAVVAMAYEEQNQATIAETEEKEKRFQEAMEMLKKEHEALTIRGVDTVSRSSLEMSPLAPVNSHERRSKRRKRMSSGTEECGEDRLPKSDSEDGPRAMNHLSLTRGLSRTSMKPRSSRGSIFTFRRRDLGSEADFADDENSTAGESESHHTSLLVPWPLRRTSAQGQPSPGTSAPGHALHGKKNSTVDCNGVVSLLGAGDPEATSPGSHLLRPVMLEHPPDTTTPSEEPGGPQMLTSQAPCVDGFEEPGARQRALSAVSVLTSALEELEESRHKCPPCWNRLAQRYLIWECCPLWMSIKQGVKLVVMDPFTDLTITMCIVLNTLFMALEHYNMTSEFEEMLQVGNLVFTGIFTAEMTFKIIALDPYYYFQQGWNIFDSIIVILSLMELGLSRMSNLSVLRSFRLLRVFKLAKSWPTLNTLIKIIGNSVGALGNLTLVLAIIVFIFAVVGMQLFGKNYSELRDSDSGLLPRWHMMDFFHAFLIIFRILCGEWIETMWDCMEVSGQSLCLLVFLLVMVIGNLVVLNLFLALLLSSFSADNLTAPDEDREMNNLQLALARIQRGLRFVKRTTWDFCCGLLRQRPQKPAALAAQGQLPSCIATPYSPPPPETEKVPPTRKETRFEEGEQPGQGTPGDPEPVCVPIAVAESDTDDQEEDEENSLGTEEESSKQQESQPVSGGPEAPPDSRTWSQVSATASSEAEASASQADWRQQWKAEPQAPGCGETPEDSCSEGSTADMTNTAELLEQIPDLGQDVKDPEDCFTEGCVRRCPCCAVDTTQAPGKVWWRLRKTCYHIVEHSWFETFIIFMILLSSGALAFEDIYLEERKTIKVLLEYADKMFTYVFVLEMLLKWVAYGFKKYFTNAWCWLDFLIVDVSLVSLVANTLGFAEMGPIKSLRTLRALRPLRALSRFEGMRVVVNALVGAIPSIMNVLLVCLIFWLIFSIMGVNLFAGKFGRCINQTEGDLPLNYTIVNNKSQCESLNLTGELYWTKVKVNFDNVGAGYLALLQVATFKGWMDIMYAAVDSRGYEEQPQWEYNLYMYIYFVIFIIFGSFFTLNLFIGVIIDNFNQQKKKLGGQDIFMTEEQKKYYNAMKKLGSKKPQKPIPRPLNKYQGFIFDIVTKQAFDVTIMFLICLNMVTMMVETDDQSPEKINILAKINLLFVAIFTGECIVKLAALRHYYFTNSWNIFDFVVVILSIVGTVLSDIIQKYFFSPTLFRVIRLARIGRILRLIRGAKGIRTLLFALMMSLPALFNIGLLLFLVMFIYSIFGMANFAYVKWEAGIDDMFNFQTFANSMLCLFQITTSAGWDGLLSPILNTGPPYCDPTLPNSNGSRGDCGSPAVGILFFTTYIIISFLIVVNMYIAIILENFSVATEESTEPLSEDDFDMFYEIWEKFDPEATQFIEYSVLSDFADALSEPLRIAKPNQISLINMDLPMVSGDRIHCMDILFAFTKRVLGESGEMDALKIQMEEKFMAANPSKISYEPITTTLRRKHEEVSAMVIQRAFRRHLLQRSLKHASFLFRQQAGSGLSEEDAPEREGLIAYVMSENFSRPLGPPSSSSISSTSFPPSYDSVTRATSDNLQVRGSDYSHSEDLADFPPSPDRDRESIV
Sequence of hNav1.7 (Q15858 whole entry): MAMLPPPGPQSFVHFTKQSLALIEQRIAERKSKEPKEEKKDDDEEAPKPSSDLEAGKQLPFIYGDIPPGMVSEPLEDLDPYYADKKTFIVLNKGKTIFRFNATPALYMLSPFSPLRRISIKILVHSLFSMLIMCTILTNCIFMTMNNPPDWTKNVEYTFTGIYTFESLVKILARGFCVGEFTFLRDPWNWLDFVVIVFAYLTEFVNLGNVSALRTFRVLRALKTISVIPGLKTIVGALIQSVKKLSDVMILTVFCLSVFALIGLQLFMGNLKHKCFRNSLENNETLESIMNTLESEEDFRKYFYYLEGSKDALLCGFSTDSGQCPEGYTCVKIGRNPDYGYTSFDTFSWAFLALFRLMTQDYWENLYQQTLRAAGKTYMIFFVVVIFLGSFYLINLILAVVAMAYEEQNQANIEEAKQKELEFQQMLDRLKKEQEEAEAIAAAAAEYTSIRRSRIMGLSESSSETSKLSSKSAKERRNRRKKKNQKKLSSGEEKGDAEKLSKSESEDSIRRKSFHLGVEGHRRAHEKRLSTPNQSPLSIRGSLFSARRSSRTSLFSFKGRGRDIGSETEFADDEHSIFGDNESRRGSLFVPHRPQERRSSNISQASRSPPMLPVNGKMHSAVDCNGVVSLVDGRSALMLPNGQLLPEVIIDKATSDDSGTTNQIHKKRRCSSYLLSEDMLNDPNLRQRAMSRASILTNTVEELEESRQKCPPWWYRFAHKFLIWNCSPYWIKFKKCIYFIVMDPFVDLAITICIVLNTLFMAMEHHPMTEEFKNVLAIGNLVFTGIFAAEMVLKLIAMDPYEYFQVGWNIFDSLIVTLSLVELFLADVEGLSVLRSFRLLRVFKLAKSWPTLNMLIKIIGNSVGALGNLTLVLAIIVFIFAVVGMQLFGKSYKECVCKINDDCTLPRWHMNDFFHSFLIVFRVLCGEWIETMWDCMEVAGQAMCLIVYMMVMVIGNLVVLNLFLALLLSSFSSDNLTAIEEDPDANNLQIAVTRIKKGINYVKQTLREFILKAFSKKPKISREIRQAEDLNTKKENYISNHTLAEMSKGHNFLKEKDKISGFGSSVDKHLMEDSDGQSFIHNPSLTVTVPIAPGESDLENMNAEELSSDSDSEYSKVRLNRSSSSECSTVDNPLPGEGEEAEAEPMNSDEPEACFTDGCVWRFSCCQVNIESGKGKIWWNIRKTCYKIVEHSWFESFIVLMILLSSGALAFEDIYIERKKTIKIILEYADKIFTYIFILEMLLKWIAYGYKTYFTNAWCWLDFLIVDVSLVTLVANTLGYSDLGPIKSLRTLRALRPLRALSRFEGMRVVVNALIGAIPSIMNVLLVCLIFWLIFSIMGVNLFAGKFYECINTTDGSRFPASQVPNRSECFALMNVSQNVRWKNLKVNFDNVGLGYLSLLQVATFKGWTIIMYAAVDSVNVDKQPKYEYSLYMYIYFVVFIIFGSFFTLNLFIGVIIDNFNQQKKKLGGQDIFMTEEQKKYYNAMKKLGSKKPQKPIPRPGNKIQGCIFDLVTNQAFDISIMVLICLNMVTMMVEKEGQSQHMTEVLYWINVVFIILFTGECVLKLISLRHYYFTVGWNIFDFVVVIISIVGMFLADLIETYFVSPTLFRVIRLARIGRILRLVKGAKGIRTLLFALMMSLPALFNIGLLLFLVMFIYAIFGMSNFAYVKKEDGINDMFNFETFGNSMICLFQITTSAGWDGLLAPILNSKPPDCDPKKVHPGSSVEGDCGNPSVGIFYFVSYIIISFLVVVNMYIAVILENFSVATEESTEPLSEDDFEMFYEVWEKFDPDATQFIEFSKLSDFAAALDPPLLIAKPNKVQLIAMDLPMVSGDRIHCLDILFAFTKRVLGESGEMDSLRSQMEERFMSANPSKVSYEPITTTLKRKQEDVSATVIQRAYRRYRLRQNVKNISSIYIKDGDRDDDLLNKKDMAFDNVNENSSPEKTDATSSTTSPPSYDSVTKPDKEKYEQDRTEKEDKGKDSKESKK

| Compound | pIC50 (hNav1.7; tonic block) | pIC50 (hNav1.4; tonic block) | pIC50 (hNav1.5; tonic block) | Nav1.4/Nav1.7 (hNav1.4; ratio of PX tonic IC50 values) | pIC50 (hNav1.7; [1]) | pIC50 (hNav1.4; [1]) | Nav1.4/Nav1.7 (hNav1.4; ratio of PX IC50 values) | pIC50 (hNav1.5; [1]) |
| --- | --- | --- | --- | --- | --- | --- | --- | --- |
| C#CC[C@@H]1NC(=O)[C@H](CC(=O)O)NC(=O)[C@@H]2CSSC[C@@H]3NC(=O)[C@H](CCC(=O)O)NC(=O)[C@H](CC(C)C)NC(=O)CNC(=O)[C@H](CCC(=O)O)NC(=O)[C@H](CSSC[C@H](NC(=O)[C@@H](N)Cc4ccc(O)cc4)C(=O)N[C@@H](CCC(N)=O)C(=O)N[C@@H](CCCCN)C(=O)N[C@@H](Cc4c[nH]c5ccccc45)C(=O)N[C@@H](CCCC)C(=O)N[C@@H](Cc4c[nH]c5ccccc45)C(=O)N[C@@H]([C@@H](C)O)C(=O)N2)NC(=O)[C@H](CSSC[C@@H](C(=O)N[C@@H](CCCNC(=N)N)C(=O)N[C@@H](CCCCN)C(=O)N[C@@H](Cc2ccc(O)cc2)C(=O)N[C@H](C(N)=O)[C@@H](C)CC)NC(=O)[C@H](Cc2c[nH]c4ccccc24)NC(=O)[C@H](CC(C)C)NC(=O)[C@H](CCCCN)NC3=O)NC(=O)[C@H](C)NC(=O)[C@H](CCCNC(=N)N)NC(=O)[C@H](CCCCN)NC1=O [compound 315] | 8.89 | 6.08 | 5.61 |  |  |  |  |  |
| C#CC[C@@H]1NC(=O)[C@H](CC(=O)O)NC(=O)[C@@H]2CSSC[C@@H]3NC(=O)[C@H](CCC(=O)O)NC(=O)[C@H](CC(C)C)NC(=O)CNC(=O)[C@H](CCC(=O)O)NC(=O)[C@H](CSSC[C@H](NC(=O)[C@@H](N)Cc4ccc(O)cc4)C(=O)N[C@@H](CCC(N)=O)C(=O)N[C@@H](CCCCN)C(=O)N[C@@H](Cc4c[nH]c5ccccc45)C(=O)N[C@@H](CCCC)C(=O)N[C@@H](Cc4c[nH]c5ccccc45)C(=O)N[C@@H]([C@@H](C)O)C(=O)N2)NC(=O)[C@H](CSSC[C@@H](C(=O)N[C@@H](CCCNC(=N)N)C(=O)N[C@@H](CCCCN)C(=O)N[C@H](C(=O)N[C@H](C(N)=O)[C@@H](C)CC)[C@@H](C)CC)NC(=O)[C@H](Cc2c[nH]c4ccccc24)NC(=O)[C@H](CC(C)C)NC(=O)[C@H](CCCCN)NC3=O)NC(=O)[C@H](C)NC(=O)[C@H](CCCNC(=N)N)NC(=O)[C@H](CCCCN)NC1=O [compound 344] | 7.74 | 5.37 | 5.45 | 230 |  |  |  |  |
| CCCC[C@@H]1NC(=O)[C@H](Cc2c[nH]c3ccccc23)NC(=O)[C@H](CCCCN)NC(=O)[C@H](CCC(N)=O)NC(=O)[C@@H](NC(=O)[C@H](Cc2ccc(O)cc2)NC(=O)[C@@H](C)N)CSSC[C@@H]2NC(=O)[C@@H]3CSSC[C@@H](C(=O)N[C@@H](CCCNC(=N)N)C(=O)N[C@@H](CCCCN)C(=O)N[C@H](C(=O)N[C@H](C(N)=O)[C@@H](C)CC)[C@@H](C)CC)NC(=O)[C@H](Cc4c[nH]c5ccccc45)NC(=O)[C@H](CC(C)C)NC(=O)[C@H](CCCCN)NC(=O)[C@H](CSSC[C@H](NC(=O)[C@H]([C@@H](C)O)NC(=O)[C@H](Cc4c[nH]c5ccccc45)NC1=O)C(=O)N[C@@H](CC(=O)O)C(=O)N[C@@H](CO)C(=O)N[C@@H](CCCCN)C(=O)N[C@@H](CCCNC(=N)N)C(=O)N[C@@H](C)C(=O)N3)NC(=O)[C@H](CCCNC(=N)N)NC(=O)[C@H](CC(C)C)NC(=O)CNC(=O)[C@H](CCC(=O)O)NC2=O [compound 372] |  |  |  |  | 9.02 | 8.29 | 5 | 6.14 |
| CC[C@H](C)[C@H](NC(=O)[C@@H](NC(=O)[C@H](CCCCN)NC(=O)[C@H](CCCNC(=N)N)NC(=O)[C@@H]1CSSC[C@@H]2NC(=O)[C@H](C)NC(=O)[C@H](CCCNC(=N)N)NC(=O)[C@H](CCCCN)NC(=O)[C@H](CO)NC(=O)[C@H](CC(=O)O)NC(=O)[C@@H]3CSSC[C@H](NC(=O)[C@H](CCCNC(=N)N)NC(=O)[C@H](CC(C)C)NC(=O)CNC(=O)[C@H](CCC(=O)O)NC(=O)[C@H](CSSC[C@H](NC(=O)[C@@H](N)Cc4ccc(O)cc4)C(=O)N[C@@H](CCC(N)=O)C(=O)N[C@@H](CCCCN)C(=O)N[C@@H](Cc4c[nH]c5ccccc45)C(=O)N[C@@H](CCSC)C(=O)N[C@@H](Cc4cccc5ccccc45)C(=O)N[C@@H]([C@@H](C)O)C(=O)N3)NC2=O)C(=O)N[C@@H](CCCCN)C(=O)N[C@@H](CC(C)C)C(=O)N[C@@H](Cc2c[nH]c3ccccc23)C(=O)N1)[C@@H](C)CC)C(N)=O [compound 30] |  |  |  |  | 9.40 | 9.05 | 2 | 5.85 |

Reference: patent US9636418B2 (priority 2013, dated 2017)
